The target of series [1] is human hematopoietic synthase (Homo sapiens, UniProt O60760). Kind of series: Hematopoietic synthase inhibitory activity (Experiment 1). The format is biochemical. Particulars: [14C] prostaglandin H2 10 μM, preincubated at 25° C. for 5 minutes, 1 minute reaction; read-out: Concentration of Pharmaceutical Compound Required to Inhibit 50% of Hematopoietic Synthase. On the procedure:
Experiment 1 was carried out according to the method of Urade, Y. et al. (J. Biol. Chem. 262, 3820-3825, (1987)). More specifically, the reaction mixture (49 μL); 100 mM Tris-HCl (pH 8.0), 1 mM reduced glutathione, 0.1 mg/mL γ-globulin, and human hematopoietic synthase (quantum sufficient), and a test compound (final concentration: 0.01-100 μM) were preincubated at 25° C. for 5 minutes. In place of the test compound, a DMSO solution (final concentration: 1%) was used in the solvent control group (Control Group). Subsequently, 1 μL of [^14C] prostaglandin H2 (final concentration: 10 μM) was added to start the reaction. One minute after the start of the reaction, 250 μL of a reaction stopper solution (diethylether/methanol/1M citric acid (30/4/1) cooled to −20° C. was added to stop the reaction.
Thereafter, 50 μL of the upper layer portion (organic solvent phase) was applied to a TLC plate and developed at −20° C. for 45 minutes (developer: diethylether/methanol/acetic acid (capacity ratio=90/2/1)). After drying the plate, the plate was exposed to an imaging plate for 1 to 24 hours, and the radioactivity corresponding to prostaglandin D2 was analyzed using an image analyzer (product of FUJIFILM Corporation). The area (%) occupied by the prostaglandin D2 band per lane was calculated, and the concentration of the test compound required to inhibit 50% of the hematopoietic synthase (IC50 value) was calculated by comparison with the Control group in each experiment.

Sequence of human hematopoietic synthase (O60760 whole entry): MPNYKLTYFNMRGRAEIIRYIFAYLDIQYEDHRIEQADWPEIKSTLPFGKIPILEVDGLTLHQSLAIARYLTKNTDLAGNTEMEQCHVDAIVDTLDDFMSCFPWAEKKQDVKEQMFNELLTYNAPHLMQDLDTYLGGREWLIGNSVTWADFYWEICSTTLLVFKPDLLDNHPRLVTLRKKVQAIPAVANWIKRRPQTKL

As for `Cc1cc(C)c(-c2nc3cc(C(=O)c4ccccc4)ccc3[nH]2)[nH]1` [Compound 52, 5-Benzoyl-2-(3,5-dimethylpyrrol-2-yl)-benzimidazole], the melting point (in general, the temperature, or range, at which the solid turns liquid) was in the range of 225 to 229 °C. Moreover, the IC50 in series [1] is 4800 nM.
The like results for `Cc1[nH]c(/C=C/C#N)c(C)c1-c1nc2cc(C(=O)c3ccccc3)ccc2[nH]1` [Compound 9, 2-(2-Acrylonitrile-3,5-dimethyl-pyrrol-4-yl)-5-benzoylbenzimidazole] were, in that order, 201 to 203 °C and 110 nM.
`Cc1[nH]c(C=O)c(C)c1-c1nc2cc(C(=O)c3ccccc3)ccc2[nH]1` [Compound 8, 2-(2-Formyl-3,5-dimethyl-pyrrol-4-yl)-5-benzoylbenzimidazole]: the melting point lay within 253 to 255 °C.
`Cc1coc(C)c1-c1nc2cc(C(=O)c3ccccc3)ccc2[nH]1` [Compound 1, 5-Benzoyl-2-(2,4-dimethylfuran-3-yl)-benzimidazole] yielded a melting point of 203 to 208 °C. Further, the IC50 in series [1] came to 796 nM.
For `Cc1[nH]c(C(=O)NCCC(=O)O)c(C)c1-c1nc2cc(C(=O)c3ccccc3)ccc2[nH]1` [Compound 21, N-(2-Carboxyethyl)-4-(5-benzoylbenzimidazol-2-yl)-3,5-dimethylpyrrole-2-carboxamide], in that order: 256 to 258 °C and 304 nM.
Compound `Cc1[nH]c(C(=O)N2CCC(C(=O)NCCN(C)C)CC2)c(C)c1-c1nc2cc(C(=O)c3ccccc3)ccc2[nH]1` [Compound 46, N-Dimethylaminoethyl-1-((4-(5-benzoylbenzimidazol-2-yl)-3,5-dimethylpyrrol-2-yl)-carbonyl)piperidine-4-carboxamide] returned a melting point of 258 to 260 °C. Besides, in series [1], the IC50 came out at 758 nM.
The like results for `O=C(c1ccccc1)c1ccc2[nH]c(-c3ccc(C(=O)O)o3)nc2c1` [Compound 57, 5-(5-Benzoylbenzimidazol-2-yl)-furan-2-carboxylic acid] were, in that order, 170 °C and 4130 nM.
The like results for `Cc1c[nH]c(C)c1-c1nc2cc(C(=O)c3ccccc3)ccc2[nH]1` [Compound 7, 2-(2,4-Dimethyl-pyrrol-3-yl)-5-benzoylbenzimidazole] were, in that order, 207 to 214 °C and 588 nM.
For `CCOC(=O)c1[nH]c(C)c(-c2nc3cc(Oc4ccccc4)ccc3[nH]2)c1C` [Compound 68, 4-(5-Phenoxybenzimidazole-2-yl)-3,5-dimethylpyrrole-2-carboxylic acid ethyl ester], in that order: 239 to 242 °C and 210 nM.
With `Cc1[nH]c(C(=O)Nc2ccc3ncsc3c2)c(C)c1-c1nc2cc(C(=O)c3ccccc3)ccc2[nH]1` [Compound 31, N-(Benzothiazole-6-yl)-4-(5-benzoylbenzimidazol-2-yl)-3,5-dimethylpyrrole-2-carboxamide], the IC50 in series [1] came out at 90 nM.
On the same count and under the same terms, as for `Cc1[nH]c(C(=O)N2CCC(C(=O)N(C)CCN(C)C)CC2)c(C)c1-c1nc2cc(C(=O)c3ccccc3)ccc2[nH]1` [Compound 47, N-Methyl-N-(2-dimethylaminoethyl)-1-((4-(5-benzoylbenzimidazol-2-yl)-3,5-dimethylpyrrol-2-yl)-carbonyl)piperidine-4-carboxamide], the figure is 269 nM; as for `Cc1[nH]c(C(=O)Nc2ccc3c(c2)OCCO3)c(C)c1-c1nc2cc(C(=O)c3ccccc3)ccc2[nH]1` [Compound 32, N-(3,4-Ethylenedioxyphenyl)-4-(5-benzoylbenzimidazol-2-yl)-3,5-dimethylpyrrole-2-carboxamide], 124 nM; as for `Cc1[nH]c(C(=O)N(C)O)c(C)c1-c1nc2cc(C(=O)c3ccccc3)ccc2[nH]1` [Compound 65, (N-Hydroxy-N-methyl)-4-(5-benzoylbenzimidazol-2-yl)-3,5-dimethylpyrrole-2-carboxamide], 124 nM.
The same measure, in the same setting: as for `Cc1oc(C(N)=O)c(C)c1-c1nc2cc(Oc3ccccc3)ccc2[nH]1` [Compound 76, 4-(5-Phenoxybenzimidazole-2-yl)-3,5-dimethylfuran-2-carboxamide], the figure is 109 nM; as for `CON(C)C(=O)c1[nH]c(C)c(-c2nc3cc(Oc4ccccc4)ccc3[nH]2)c1C` [Compound 74, (N-Methoxy-N-methyl)-4-(5-phenoxybenzimidazole-2-yl)-3,5-dimethylpyrrole-2-carboxamide], 263 nM.
In turn, `O=C(c1ccccc1)c1ccc2[nH]c(-c3ccc(P(=O)(O)O)o3)nc2c1` (hydrate or solvate) [Comparative Example 3, 5-Benzophenone-2-(2-phosphono-5-furanyl)benzimidazole dihydrate] displayed a melting point of 224 to 229 °C.
In the case of `Cc1[nH]c(C(=O)O)c(C)c1-c1nc2cc(C(=O)c3ccccc3)ccc2[nH]1` [Compound 10, 4-(5-Benzoylbenzimidazol-2-yl)-3,5-dimethylpyrrole-2-carboxylic acid], the IC50 in series [1] was found to be 436 nM.
On the same count and under the same terms, as for `COCCCNC(=O)c1[nH]c(C)c(-c2nc3cc(C(=O)c4ccccc4)ccc3[nH]2)c1C` [Compound 16, N-(3-Methoxypropyl)-4-(5-benzoylbenzimidazol-2-yl)-3,5-dimethylpyrrole-2-carboxamide], the figure is 2280 nM.
Regarding `Cc1[nH]c(C(N)=O)c(C)c1-c1nc2cc(C(=O)c3ccccc3)ccc2[nH]1` [Compound 12, 4-(5-Benzoylbenzimidazol-2-yl)-3,5-dimethylpyrrole-2-carboxamide], in series [1], the IC50 is 100 nM.
With `Cc1[nH]c(C(=O)N(C)C)c(C)c1-c1nc2cc(Sc3ccncc3)c(Oc3ccccc3)cc2[nH]1` [Comparative Example 2, (N,N-Dimethyl)-4-(5-(4-pyridylsulfenyl)-6-phenoxybenzimidazole-2-yl)-3,5-dimethylpyrrole-2-carboxamide, reference compound], in series [1], the IC50 is greater than 30000 nM.
Still for that read-out and setting: the result for `Cc1[nH]c(C(=O)Nc2ccc3[nH]ccc3c2)c(C)c1-c1nc2cc(C(=O)c3ccccc3)ccc2[nH]1` [Compound 28, N-(Indole-5-yl)-4-(5-benzoylbenzimidazol-2-yl)-3,5-dimethylpyrrole-2-carboxamide] reads 73 nM.
`O=C(c1ccccc1)c1ccc2nc(-c3ccc[nH]3)[nH]c2c1` [Compound 51, 5-Benzoyl-2-(pyrrol-2-yl)-benzimidazole] came in with a melting point of 128 to 133 °C.
Consider `O=C(c1ccccc1)c1ccc2[nH]c(-c3ccc(C(=O)N4CCCC4)o3)nc2c1` [Compound 59], for which, in series [1], the IC50 was 3560 nM.
Still for that read-out and setting: as for `CNC(=O)c1[nH]c(C)c(-c2nc3cc(C(=O)c4ccccc4)ccc3[nH]2)c1C` [Compound 66, (N-Methyl)-4-(5-benzoylbenzimidazol-2-yl)-3,5-dimethylpyrrole-2-carboxamide], the figure is 77 nM; as for `COc1ccc(CNC(=O)c2[nH]c(C)c(-c3nc4cc(C(=O)c5ccccc5)ccc4[nH]3)c2C)cc1OC` [Compound 36, N-(3,4-Dimethoxybenzyl)-4-(5-benzoylbenzimidazol-2-yl)-3,5-dimethylpyrrole-2-carboxamide], 195 nM; as for `COC(=O)CNC(=O)c1[nH]c(C)c(-c2nc3cc(C(=O)c4ccccc4)ccc3[nH]2)c1C` [Compound 20, N-(1-Methoxycarbonylmethyl)-4-(5-benzoylbenzimidazol-2-yl)-3,5-dimethylpyrrole-2-carboxamide], 871 nM.
Same read-out and setting: the result for `O=C(c1ccccc1)c1ccc2[nH]c(-c3ccc(C(=O)NCc4ccc5c(c4)OCO5)o3)nc2c1` [Compound 62, N-(3,4-Methylenedioxyphenylmethyl)-5-(5-benzoylbenzimidazol-2-yl)-furan-2-carboxamide] reads 2430 nM.
Still for that read-out and setting: as for `Cc1[nH]c(C(=O)NCCCN(C)C)c(C)c1-c1nc2cc(C(=O)c3ccccc3)ccc2[nH]1` [Compound 17, N-(3-Dimethylaminopropyl)-4-(5-benzoylbenzimidazol-2-yl)-3,5-dimethylpyrrole-2-carboxamide], the figure is 124 nM; as for `CONC(=O)c1[nH]c(C)c(-c2nc3cc(C(=O)c4ccccc4)ccc3[nH]2)c1C` [Compound 14, N-(Methoxy)-4-(5-benzoylbenzimidazol-2-yl)-3,5-dimethylpyrrole-2-carboxamide], 355 nM.
As to `Cc1[nH]c(C(=O)N(C)C)c(C)c1-c1nc2cc(C(=O)c3ccccc3)ccc2[nH]1` [Compound 64, (N,N-Dimethyl)-4-(5-benzoylbenzimidazol-2-yl)-3,5-dimethylpyrrole-2-carboxamide], the IC50 in series [1] was 377 nM.
Still for that read-out and setting: as for `c1ccc(C(OC2CCN(CCCc3nnn[nH]3)CC2)c2ccccc2)cc1` [HQL-79, 4-benzhydryloxy-1-((3-(1H-tetrazol-5-yl)-propyl))piperidine, reference compound], the figure is 24400 nM.
Same read-out and setting: as for `Cc1[nH]c(C(=O)Nc2ccc3c(c2)OCO3)c(C)c1-c1nc2cc(C(=O)c3ccccc3)ccc2[nH]1` [Compound 29, N-(3,4-Methylenedioxyphenyl-1-yl)-4-(5-benzoylbenzimidazol-2-yl)-3,5-dimethylpyrrole-2-carboxamide], the figure is 53 nM.

Source of the values: patent US7951956B2, “Benzoimidazole compound capable of inhibiting prostaglandin D synthetase” (Taiho Pharmaceuticals Co., Ltd., priority 2005, dated 2011).
